System: Tfh cells (via P2X7)
Test: Epithelial permeability to ATP: Tfh cell recovery in Peyer's patches after daily gavage
Assay type: in vivo
Settings: wild type mice, two weeks after treatment
Source text: In order to assess epithelial permeability to ATP in the small intestine, mice were gavaged daily with ATPγS (a non-hydrolysable analogue of ATP). As Tfh cells are sensitive to extracellular ATP via P2X7 the inventors analysed Tfh cell recovery in Peyer's patches two weeks after treatment.

Compound: Nc1ncnc2c1ncn2[C@@H]1O[C@H](COP(=O)(O)OP(=O)(O)OP(O)(O)=S)[C@@H](O)[C@H]1O [ATPγS]
- Tfh cells in Peyer's patches: significant reduction

Reference: patent publication US11839651B2, “Immunogenic compositions and uses thereof” (INSTITUTE FOR RESEARCH IN BIO-MEDICINE, priority 2015, dated 2023)
